The text below walks through data of patent US4981847A, “Tricyclic compounds” (Fujisawa Pharmaceutical Co., Ltd., priority 1988, dated 1991).

The term pIC50 denotes the negative decadic logarithm of the IC50, by convention in mol/L. The low end stands for a large IC50, the high end for a small IC50. What is called ED50 is the dose at which the effect has come halfway, by size or by number of responders. A higher ED50 goes with weaker potency.

The target of assay [1] is T1, rat pancreatic CCK receptors (Rattus norvegicus, UniProt P30551).
T1 construct: rat pancreatic CCK receptors; from tissue; host or cells: rat pancreas
T1 sequence (P30551 1-444): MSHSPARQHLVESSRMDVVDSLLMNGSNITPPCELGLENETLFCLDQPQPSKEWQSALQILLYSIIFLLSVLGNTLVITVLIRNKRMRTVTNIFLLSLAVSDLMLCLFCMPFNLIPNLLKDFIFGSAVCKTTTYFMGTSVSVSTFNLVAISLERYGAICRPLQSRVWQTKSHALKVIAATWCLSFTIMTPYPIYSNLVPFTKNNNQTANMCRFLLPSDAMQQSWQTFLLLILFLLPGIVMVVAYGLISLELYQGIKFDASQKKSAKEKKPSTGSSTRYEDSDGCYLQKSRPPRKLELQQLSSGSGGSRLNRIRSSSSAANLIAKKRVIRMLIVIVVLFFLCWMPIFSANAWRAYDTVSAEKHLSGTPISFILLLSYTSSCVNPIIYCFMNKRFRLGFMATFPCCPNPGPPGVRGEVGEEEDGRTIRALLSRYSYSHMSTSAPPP
Nature of the assay: Inhibition of binding of [125I] CCK-8 to rat pancreatic CCK receptors. The source says: (B) Inhibition of binding of [^125 I] CCK-8 to rat pancreatic CCK receptors by test compound B (CCK antagonism).

The subject of assay [2] is caerulein-induced pancreatitis. Kind of assay: Inhibitory effect on caerulein-induced pancreatitis in mice. The assay is classed as in vivo. The following applies: Mus musculus. The source says: (D) Inhibitory effect of test compound B on caerulein-induced pancreatitis in mice.
For assay [3], the system named is CCK-8-induced inhibition of gastric emptying. Nature of the assay: Effect upon CCK-8-induced inhibition of gastric emptying in mice (CCK antagonism). The following applies: Mus musculus. In kind it is in vivo. The source says: Effect of test compound B upon CCK-8-induced inhibition of gastric emptying in mice (CCK antagonism).
In assay [4] the target is T2, guinea pig cerebral cortical CCK receptors (Cavia porcellus, UniProt H0VZC5).
T2 construct: guinea pig cerebral cortical CCK receptors; from tissue; host or cells: guinea pig cerebral cortex
Nature of the assay: Inhibition of binding of [125I] CCK-8 to guinea pig cerebral cortical CCK receptors. The source says:
(C) Inhibition of binding of [^125 I] CCK-8 to guinea pig cerebral cortical CCK receptors by test compound B (CCK antagonism).

Another assay deals with CCK receptor. Nature of the assay: CCK receptor antagonism in isolated fundic circular muscle from guinea pig stomach. In kind it is cell-based. The following applies: test compound 1×10^-6 M, CCK-8 3.2×10^-7 M, 37° C. The procedure: (A) CCK receptor antagonism in isolated fundic circular muscle from guinea pig stomach
The strip of circular muscle suspended in 25 ml organ bath containing Krebs' bicarbonate solution (NaCl 118 mM, KCl 4.8 mM, KH2 PO4 1.2 mM, MgSO4 1.2 mM, CaCl2 2.5 mM, NaHCO3 25 mM, glucose 11 mM and bovine serum albumin 0.1%) maintained at 37° C. and gassed with 95% O2 and 5% CO2.
The strip was placed under an initial tension of 0.5 g and equilibrated for 60 minutes during which the bath volume was replaced every 15 minutes. Isometric contraction was measured using a force transducer. CCK-8 (3.2×10^-7 M) was added to the bathing solution and the contractile force was measured After washing out CCK-8, test compound A (1×10^-6 M) was added. 5 minutes later, CCK-8 was added and the contractile force was measured. CCK antagonism was calculated by comparing the contractile force induced by CCK in the absence or presence of test compound A.

pIC50: −log10 of the molar value.

T2 sequence (H0VZC5 entry or part of it): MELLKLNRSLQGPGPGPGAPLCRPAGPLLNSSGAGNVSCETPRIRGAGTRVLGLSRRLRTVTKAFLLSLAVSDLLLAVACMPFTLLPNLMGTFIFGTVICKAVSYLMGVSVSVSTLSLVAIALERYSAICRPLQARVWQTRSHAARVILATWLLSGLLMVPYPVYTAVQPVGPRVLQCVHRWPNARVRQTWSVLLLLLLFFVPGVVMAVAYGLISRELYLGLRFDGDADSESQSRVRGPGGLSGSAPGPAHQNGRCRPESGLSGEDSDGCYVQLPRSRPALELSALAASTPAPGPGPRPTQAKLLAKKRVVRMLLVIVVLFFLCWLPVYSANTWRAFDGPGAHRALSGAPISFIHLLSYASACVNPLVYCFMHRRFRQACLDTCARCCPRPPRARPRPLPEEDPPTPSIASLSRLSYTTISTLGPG

`O=C(N[C@H]1N=C(c2ccccc2F)c2cccc3c2N(CC3)C1=O)c1cc2ccccc2[nH]1` [test compound B, (3S)-1-(2-Fluorophenyl)-3,4,6,7,-tetrahydro-3-(2-indolylcarbonylamino)-4-oxopyrrolo[3,2,1-jk][1,4]-benzodiazepine]: the pIC50 in assay [1] was 9.17; in assay [4], 7.51. Further, the ED50 in assay [2] is 0.022 mg/kg; in assay [3], 0.01 mg/kg.
Take `O=C(NC1N=C(c2ccccc2F)c2cccc3c2N(CC3)C1=O)c1cc2ccccc2[nH]1` (racemic) [test compound A, (3RS)-1-(2-Fluorophenyl)-3,4,6,7-tetrahydro-3-(2-indolylcarbonylamino)-4-oxopyrrolo[3,2,1-jk][1,4]benzodiazepine]: the “Inhibition (%) of CCK-8-induced contraction” value with CCK receptor is given as 90.4%.
